Data: patent US4089961A, “Antipsychotically useful quinolizidylidene derivatives of xanthenes, thioxanthenes and dibenzoxepins” (priority 1976, dated 1978)
Read-outs that look alike come from different tables or passages of the source.

Legend:
[1] = test system: striatal dopamine receptors; experiment: antagonism of amphetamine-induced rotation in rats with unilateral 6-hydroxydopamine lesions of the substantia nigra; type: in vivo, rat; details: for ED50: Rattus norvegicus, ip, read-out: Antagonism of Amphetamine-induced Rotation Rats ED50; for ED50 for antagonism of amphetamine-induced rotation: rat
Source text: (§1) To assess the potency of drugs in blocking striatal dopamine receptors a procedure was used which was developed by Ungerstedt [Ungerstedt and Arbuthnott, Brain Res. 24 485 (1970); Ungerstedt, Acta physiol. scand., Suppl. 367, 49 (1971)] using rats with unilateral lesions of the substantia nigra induced by injection of 6-hydroxydopamine. This treatment causes degeneration of the nigrostriatal dopaminergic pathway accompanied by a marked decrease in the dopamine content of the neostriatum on the side of the lesion. Animals with this lesion develop postural and motor asymmetries which are altered by drugs which effect dopaminergic activity. Amphetamine, which releases dopamine and norepinephrine from catecholaminergic neurons, causes these rats to rotate unidirectionally toward the side of the lesion. Since there is a much larger amount of dopamine to be released by amphetamine from the intact nigrostriatal neurons on the non-lesioned side than from those remaining on the lesioned side, the rotational behavior is apparently due to a preponderance of activation of striatal dopamine receptors on the intact side. The ability of a drug to antagonize the rotational behavior is therefore a measure of its ability to block striatal dopamine receptors and is indicative of its potential to produce EPS.
(§2) To predict the potential ability of a drug to cause EPS, the ratio of its ED50 (i.p.) for antagonism of amphetamine-induced rotation to its ED50 (i.p.) for blockage of shock avoidance acquisition in the rat, a procedure for assessing antipsychotic activity, (R/A ratio) is calculated.

[2] = test system: striatal dopamine receptors; details: rat, in vivo, ip
Source text: There is evidence that antipsychotic drugs cause EPS by interfering with neurotransmission in a nigrostriatal dopaminergic pathway. It is throught that they block dopamine receptors in the neostriatum. Therefore, the ability of a drug to block striatal dopamine receptors is a measure of its EPS liability.
as §1, §2

[3] = clinically established antipsychotics; cited from earlier work
[4] = test system: shock avoidance acquisition; experiment: blockade of shock avoidance acquisition in the rat (procedure for assessing antipsychotic activity); type: in vivo; details: i.p.
Protocol: as §2

Row | SMILES | ED50 ([1]; rats, i.p., Table I, R) [mg/kg] | R/A ratio [2] | propensity to cause EPS relative to chlorpromazine [3] | ED50 [1] [mg/kg] | ED50 for blockade of shock avoidance acquisition [4] [mg/kg] | ED50 for antagonism of amphetamine-induced rotation ([1]; i.p.) [mg/kg]
1 | CSc1ccc2c(c1)N(CCC1CCCCN1C)c1ccccc1S2 (centres unmarked) [Thioridazine, thioridazine] | 13.7 | 2.7 | known to produce EPS to a lesser extent than chlorpromazine |  |  | 
2 | CN(C)CCCN1c2ccccc2Sc2ccc(Cl)cc21 [Chlorpromazine] |  |  |  | 2 |  | 
3 | O=C(CCCN1CCC(O)(c2ccc(Cl)cc2)CC1)c1ccc(F)cc1 [Haloperidol, haloperidol] | 0.05 | 0.3-0.5 | considerably greater propensity to cause EPS than chlorpromazine |  |  | 
4 | CN1CCN(CCCN2c3ccccc3Sc3ccc(C(F)(F)F)cc32)CC1 [Trifluoperazine, trifluoperazine] | 0.12 | 0.3-0.5 | considerably greater propensity to cause EPS than chlorpromazine |  |  | 
5 | Clc1ccc2c(c1)C(=C1CCC3CCCCN3C1)c1ccccc1S2 (stereo not drawn) [3-(2-chlorothioxanthen-9-ylidene)quinolizidine, other isomer] |  | 3.3 |  |  | 0.7 | 2.3
6 | O=c1[nH]c2ccccc2n1C1CCN(CCCC(c2ccc(F)cc2)c2ccc(F)cc2)CC1 [Pimozide, pimozide] |  |  | considerably greater propensity to cause EPS than chlorpromazine | 0.08 |  | 
7 | Clc1ccc2c(c1)C(=C1CCC3CCCCN3C1)c1ccccc1S2 (stereo not drawn) [3-(2-chlorothioxanthen-9-ylidene)quinolizidine, isomer havin] |  | 4.8 |  |  | 1.7 | 8.2
8 | CN1CCN(C2=Nc3cc(Cl)ccc3Nc3ccccc32)CC1 [Clozapine, clozapine] | 25.4 |  | known to produce EPS to a lesser extent than chlorpromazine |  |  | 
